Measured values: patent publication US20040053282A1, “Method of examining allergic disease” (priority 2000, published 2004)

B1: IFNγ: cytokine interferon γ (protein, UniProt P01579 24-161, looked up)
Interferon gamma: QDPYVKEAENLKKYFNAGHSDVADNGTLFLGILKNWKEESDRKIMQSQIVSFYFKLFKNFKDDQSIQKSVETIKEDMNVKFFNSNKKKRDDFEKLTNYSVTDLNVQRKAIHELIQVMAELSPAAKTGKRKRSQMLFRG
B2: IL-4: cytokine interleukin 4 (protein, UniProt P05112 25-153, looked up)
Interleukin-4: HKCDITLQEIIKTLNSLTEQKTLCTELTVTDIFAASKNTTEKETFCRAATVLRQFYSHHEKDTRCLGATAQQFHRHKQLIRFLKRLDRNLWGLAGLNSCPVKEANQSTLENFLERLKTIMREKYSKCSS

Key:
mouse intersectin 2 gene = assay: Intersectin 2 gene expression in ear tissue of DNFB-coated mouse allergic reaction model (TaqMan, ABI 7700); assay type: in vivo; settings: mouse ear tissue mRNA, day 6, corrected with 18S gene, value of CONT. taken as 1; four mice each; prednisolone oral day 0 to day 6
Experimental: Using a 2,4-dinitrofluorobenzene (DNFB) coated mouse as a model for an allergic reaction, changes in the expression level of the intersectin 2 gene in the mouse were observed. DNFB is a substance that is used as a hapten to cause allergic dermatitis reaction in a laboratory animal such as a mouse.
Day 0: The abdominal region was shaved by an electric clipper and 25 μL of the sensitizing solution was applied to the abdominal region.
Day 1: In a similar manner to the previous day, 25 μL of the sensitizing solution was applied to the abdominal region.
Day 5: 5 μL/ear of challenge solution was applied to both ears. […]
The expression level of the intersectin 2 gene was quantified by the TaqMan method (as mentioned above) using ABI 7700 and using mRNA sample extracted from the mouse ear tissue. […]
PCR was carried out using 25 μL of 2× Master Mix without UNG, 1.25 μL of 40×MultiScribe and RNase Inhibitor Mix, 0.25 μL of 10 μM primer, and 0.625 μL of 4 μM TaqMan Probe derived from One-step RT-PCR Master Mix Reagents (PE Biosystems), and RNA (2 ng)+DEPC resulting in total volume of 50 μL. […] To correct the differences of cDNA concentration among the samples, a similar quantitative analysis was performed on the 18S gene, and the value for the gene of interest was divided by the value for 18S, and indicated as taking the value of CONT. as 1. […]

[1] = system: "1835-17" (intersectin 2 gene); assay: Change in gene expression in human peripheral blood eosinophils due to stimulation by cytokines (TaqMan, ABI 7700); assay type: cell-based; settings: eosinophils of a healthy subject, cytokine 0.1, 1 and 10 ng/ml, 3 hours culture, GAPDH corrected, FIG. 4
Experimental: The change in gene expression due to cytokine stimulation in eosinophils isolated from 100 ml of peripheral blood from a healthy subject was studied. Isolation of eosinophils was carried out as described above. Eosinophils were plated onto a 24-well plate (1×10^6 cells/mL). The plate was pre-coated with 1% BSA (immobilizing blocking buffer) at room temperature for 2 hours in order to prevent activation due to adhesion of eosinophils. As cytokines, 0.1, 1, and 10 ng/ml each of interleukin 5 (IL-5), interleukin 4 (IL-4), interferon γ (IFNγ), granulocyte macrophage colony stimulating factor (GM-CSF), and eotaxin were added to each well, and this was cultured for 3 hours in DMEM supplemented with 10% FCS. All of these cytokines are those considered to be related to activation of eosinophils and onset of allergies.
RNAs were prepared in the same manner as in Example 1 for each of the treated eosinophils, and were subjected to gene expression analysis. The primers, probes, and such used were the same as described above. The result at 3 hours after starting the culture is shown in FIG. 4 (value was corrected with GAPDH for the number of copies per 1 ng of RNA).

Molecule	relative expression level of intersectin 2 gene (Average) (mouse intersectin 2 gene)	expression of "1835-17" (intersectin 2 gene) [1]
C[C@]12C=CC(=O)C=C1CC[C@@H]1[C@@H]2[C@@H](O)C[C@@]2(C)[C@H]1CC[C@]2(O)C(=O)CO [S, prednisolone]	1.04	–
O=[N+]([O-])c1ccc(F)c([N+](=O)[O-])c1 [DNFB, 2,4-dinitrofluorobenzene]	2.04	–
IL-5: cytokine interleukin 5	–	increases
B1	–	induced
B2	–	induced
